6 compounds from patent publication US7910622B2, “Modulation of bacterial quorum sensing with synthetic ligands” (Wisconsin Alumni Research Foundation, priority 2007, dated 2011) can be followed below.

Common to all, as to test: cell-based
One assay concerns the target T1, LuxR (Aliivibrio fischeri, UniProt P35327).
T1 construct: a Δ-luxI derivative of V. fischeri ES114, in which the native lux operon behaves as the bioluminescent reporter; endogenous in cells; host or cells: V. fischeri ES114 (Δ-luxI)
Format: cell-based, Vibrio fischeri. The conditions noted are these: for IC50: LuxR IC50, determined against 5 μM OHHL; for inhibition at 5 µM: read-out: V. fischeri-LuxR Inhibition [%], 5 μM synthetic ligand against 5 μM OHHL; for inhibition at 5 µM / V. fischeri-LuxR Inhibition [%]: V. fischeri ES114 (Δ-luxI), normalized to OHHL; for V. fischeri-LuxR Inhibition [%]: 5 μM synthetic ligand against 5 μM OHHL. The gist of the method: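 Whole-cell luminescence reporter in V. fischeri ES114 (WT, Δ-luxI or Δ-luxR) or E. coli, overnight cultures diluted 1:10 and grown with compound at RT (E. coli 30° C) to OD600 0.35-0.4 (4-6 h). Luminescence normalized to cell density, triplicates; EC50/IC50 from sigmoidal fit.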

A further assay has as its target T2, TraR (Agrobacterium tumefaciens, UniProt P33905).
T2 construct: These strains lack their AHL synthase (I) genes, but retain their native R genes; endogenous in cells; host or cells: A. tumefaciens WCF47 (Δ-traI) with PtraI-lacZ plasmid pCF372
The following applies: for A. tumefaciens-TraR Activation [%]: 10 μM ligand; for A. tumefaciens-TraR Activation [%] / inhibition at 10 µM / A. tumefaciens-TraR Inhibition [%]: A. tumefaciens WCF47 (pCF372), normalized to OOHL; for inhibition at 10 µM: read-out: A. tumefaciens-TraR Inhibition [%], 10 μM synthetic ligand against 100 nM OOHL; for A. tumefaciens-TraR Inhibition [%]: 10 μM synthetic ligand against 100 nM OOHL; for activation at 10 µM: read-out: A. tumefaciens-TraR Activation [%].

The target of the next assay is T3, LasR (Pseudomonas aeruginosa, UniProt P25084).
T3 construct: expressed in transfected cells; host or cells: E. coli DH5α (pJN105L pSC11), arabinose-induced
T3 sequence (P25084 whole entry): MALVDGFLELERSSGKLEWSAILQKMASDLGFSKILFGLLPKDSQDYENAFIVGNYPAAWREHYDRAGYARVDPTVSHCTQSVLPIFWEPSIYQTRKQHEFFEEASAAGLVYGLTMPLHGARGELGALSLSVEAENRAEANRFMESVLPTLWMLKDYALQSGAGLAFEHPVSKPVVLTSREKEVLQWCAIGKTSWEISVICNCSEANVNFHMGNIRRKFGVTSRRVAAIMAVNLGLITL
Format: cell-based. The following applies: for inhibition at 5 µM: read-out: E. coli-LasR Inhibition [%], 5 μM synthetic ligand against 7.5 nM OdDHL; for inhibition at 5 µM / E. coli-LasR Inhibition [%]: E. coli DH5α (pJN105L pSC11), normalized to OdDHL; for E. coli-LasR Inhibition [%]: 5 μM synthetic ligand against 7.5 nM OdDHL. The gist of the method: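 E. coli DH5α carrying pJN105L/pSC11 grown to OD600 0.3, LasR expression induced with arabinose (4 mg/mL), then incubated with AHLs at 37 °C to OD600 0.45. LasR activity read by β-galactosidase reporter assay; IC50/EC50 from sigmoidal dose-response fits.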

[1] abbreviates: determined against 7.5 nM OdDHL, read-out: LasR IC50.

Where two headings read alike, the source gives them in different places.

T2 sequence (P33905 whole entry): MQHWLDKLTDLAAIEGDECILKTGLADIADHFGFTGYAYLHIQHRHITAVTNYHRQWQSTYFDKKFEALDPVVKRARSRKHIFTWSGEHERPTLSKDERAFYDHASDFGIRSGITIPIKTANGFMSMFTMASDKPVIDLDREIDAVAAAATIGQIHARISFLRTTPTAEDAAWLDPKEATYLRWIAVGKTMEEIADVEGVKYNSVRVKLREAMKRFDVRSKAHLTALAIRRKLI
T1 sequence (P35327 whole entry): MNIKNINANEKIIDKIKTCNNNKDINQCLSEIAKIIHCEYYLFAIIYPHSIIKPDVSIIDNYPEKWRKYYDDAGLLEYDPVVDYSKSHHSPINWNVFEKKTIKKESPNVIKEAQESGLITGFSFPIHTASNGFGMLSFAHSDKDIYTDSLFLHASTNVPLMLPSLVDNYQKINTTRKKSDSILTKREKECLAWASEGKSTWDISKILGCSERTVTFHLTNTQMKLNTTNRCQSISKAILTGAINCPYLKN

Turning to `O=C(Cc1ccc(Br)cc1)N[C@H]1CCOC1=O` [compound 8, N-(4-bromo-phenylacetanoyl)-L-homoserine lactone, reference compound], the IC50 (commonly the point on the concentration scale where inhibition reaches its midpoint) was found to be 3.7 µM against LuxR; 4.73 µM at TraR (read-out: TraR IC50, determined against 100 nM OOHL); 3.89 µM at LasR (read-out: LasR IC50, determined against 7.5 nM OdDHL). The results for the inhibition at 5 µM at LuxR and at LasR were around 76% and around 25%, respectively. Besides, the “A. tumefaciens-TraR Activation [%]” value at TraR was found to be 1%. Besides, the inhibition (in general, the percentage by which the read-out fell short of the control) at 10 µM on TraR is around 90%.
Regarding `O=C(Cc1ccc(Br)cc1)N[C@H]1CCOC1=O` [A17, 4-bromo-phenylacetanoyl HL, reference compound], the “V. fischeri-LuxR Inhibition [%]” value on LuxR worked out at 79%. Also, on TraR, the midpoint of inhibition, the IC50, lay at 4.73 µM; the “A. tumefaciens-TraR Inhibition [%]” value was determined as 88%; the activation at 10 µM came out at 1%. For the same compound, at LasR, the IC50 is 3.89 µM and the “E. coli-LasR Inhibition [%]” value turned out to be 28%.
For `O=C(Cc1ccc(-c2ccccc2)cc1)N[C@H]1CCOC1=O` [C18, 4-phenyl PHL], the IC50 against LuxR is 1.06 µM. For the same compound, the “Inhibition (%)” value at LuxR (V. fischeri-LuxR, Library C primary antagonism screen) was 79%. Moreover, on TraR (A. tumefaciens-TraR, Library C primary agonism screen), the “Activation (%)” value worked out at 0%. Further, the “Inhibition (%)” value at TraR (A. tumefaciens-TraR, Library C primary antagonism screen) came out at 67%. Further, at TraR, the activation at 10 µM was 0% and the inhibition at 10 µM was around 70%. In addition, the inhibition at 5 µM on LasR came out at 20%.
With `O=C(CCCc1c[nH]c2ccccc12)N[C@H]1CCOC1=O` [A18, indole AHL, reference compound], on LuxR, the “V. fischeri-LuxR Inhibition [%]” value stood at 72%. In addition, on TraR, the “A. tumefaciens-TraR Activation [%]” value was found to be 0% and the “A. tumefaciens-TraR Inhibition [%]” value worked out at 35%. For the same compound, the “E. coli-LasR Inhibition [%]” value on LasR is listed as 36%. Besides, the IC50 on LasR (setting [1]) was determined as 8.38 µM.
Consider 3-nitro PHL [B17], for which the “V. fischeri-LuxR Inhibition [%]” value at LuxR is given as −15%. Besides, on TraR, the “A. tumefaciens-TraR Activation [%]” value amounted to 0% and the “A. tumefaciens-TraR Inhibition [%]” value is 46%. Moreover, on LasR (against 7.5 nM OdDHL, dose response curve did not reach 100% inhibition), the “LasR: concentration at which the compound elicits its maximal inhibition (value in parentheses)” value is 2.0 µM. Besides, the half-maximal inhibitory concentration (IC50) at LasR (setting [1]) is 0.61 µM.
For `O=C(Cc1ccc(-c2ccccc2)cc1)NC1CCOC1=O` (centres unmarked) [B21, 4-phenyl PHL], on LuxR, the IC50 is 1.06 µM and the inhibition at 5 µM was around 70%. Moreover, at TraR, the activation at 10 µM stood at 0% and the inhibition at 10 µM was around 70%. For the same compound, the inhibition at 5 µM at LasR came to 20%.
